{"source": "patent US20250249102A1", "about": "“CMV-HIV SPECIFIC CHIMERIC ANTIGEN RECEPTOR T CELLS” (priority 2022, published 2025)", "key": {"HIV-1 BaL or HIV-1 NL4-3 [1]": {"test_system": "HIV-1 BaL or HIV-1 NL4-3", "conditions": "for HIV replication: CD8+-depleted PBMCs infected with HIV-1 BaL or HIV-1 NL4-3"}, "HIV-1 BaL or HIV-1 NL4-3 [2]": {"test_system": "HIV-1 BaL or HIV-1 NL4-3", "assay": "microbe, parasite or virus in culture", "conditions": "Human immunodeficiency virus 1, PBMC"}}, "note": "Like-named read-outs stand apart in the source and are kept apart here."}
{"compound": "enfuvirtide", "values": [{"measurement": "EC50", "setting": "HIV-1 BaL or HIV-1 NL4-3 [1]", "value": 27.9, "unit": "nM"}, {"measurement": "HIV replication", "setting": "HIV-1 BaL or HIV-1 NL4-3 [1]", "value": "prevent HIV replication"}]}
{"compound": "CC(C)CN(C[C@@H](O)[C@H](Cc1ccccc1)NC(=O)O[C@H]1CO[C@H]2OCC[C@H]21)S(=O)(=O)c1ccc(N)cc1", "note": "[darunavir]", "values": [{"measurement": "EC50", "setting": "HIV-1 BaL or HIV-1 NL4-3 [2]", "value": 4.3, "unit": "nM"}, {"measurement": "HIV replication", "setting": "HIV-1 BaL or HIV-1 NL4-3 [1]", "value": "prevent HIV replication"}]}
